pEC50: −log10 of the molar value. Converted amounts (≈) assume the structure as drawn. Where two headings read alike, the source gives them in different places. Starred links: 1 amine or outer side, 2 acyl side, 3 side chain; linkers in the order of their positions; H or OH if unused. Positions of bridges follow the written chain, without caps; N, C: chain ends. Residues, ends and D or L forms follow the SMILES beside them. *: point of attachment. C20 diacid = O=C(O)CCCCCCCCCCCCCCCCCCC(=O)*; γGlu = O=C(O)[C@H](CCC(=O)[*:2])N[*:1]
Tests used:
[1] = biological target: T1, human amylin receptor (amylin 3(a) receptor: human calcitonin receptor + RAMP-3) (Homo sapiens, UniProt O60896+P30988); assay: Assay (II)a functional CRE-luciferase assay, human amylin receptor; format: cell-based; conditions: Table 2; BHK amylin 3(a)-receptor/CRE-luc cells
T1 construct: expressed in transfected cells; host or cells: BHK570
T1 sequence (P30988 25-474): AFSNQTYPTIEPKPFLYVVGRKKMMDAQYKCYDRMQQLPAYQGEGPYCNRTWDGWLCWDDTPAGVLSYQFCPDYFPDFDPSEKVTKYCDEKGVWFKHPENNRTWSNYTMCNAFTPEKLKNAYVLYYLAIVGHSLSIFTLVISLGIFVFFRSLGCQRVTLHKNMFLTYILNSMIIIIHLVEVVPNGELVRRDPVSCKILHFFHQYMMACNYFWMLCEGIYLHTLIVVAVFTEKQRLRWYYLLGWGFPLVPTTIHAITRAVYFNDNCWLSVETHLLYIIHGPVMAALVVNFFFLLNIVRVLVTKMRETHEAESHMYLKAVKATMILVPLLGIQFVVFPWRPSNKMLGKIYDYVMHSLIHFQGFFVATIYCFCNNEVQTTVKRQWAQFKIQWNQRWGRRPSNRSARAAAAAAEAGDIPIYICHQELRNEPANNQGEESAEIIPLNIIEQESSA
T1 sequence (O60896 24-148 partner): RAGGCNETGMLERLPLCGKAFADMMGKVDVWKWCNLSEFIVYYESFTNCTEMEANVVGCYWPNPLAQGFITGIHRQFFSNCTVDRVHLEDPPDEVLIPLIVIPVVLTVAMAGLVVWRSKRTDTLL

food intake = assay: Assay (I) efficacy testing on appetite (food intake), ad libitum fed rat model; format: in vivo, Sprague Dawley (SD) rats; conditions: 3 nmol/kg
Method in brief: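 Sprague Dawley rats (200–250 g), single-housed under reversed light cycle with free food and water, got one ip, po or sc dose of 0.01–3 mg/kg just before lights-off. Individual food intake recorded hourly for 7 h, then at 24 h and sometimes 48 h; groups of 5–8, Grubbs outliers excluded.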

[2] = Assay (IV) determination of solubility; format: physicochemical
Method in brief: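 Solubility is measured across pH 3.0–8.0 by mixing a ~500 nmol/ml aqueous polypeptide stock 1:1 with 100 mM glycylglycine or bistrispropane buffers. Samples stand 18 hours at room temperature, then are centrifuged and the soluble concentration is determined by HPLC.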

[3] = biological target: T2, human calcitonin receptor (Homo sapiens, UniProt P30988); assay: Assay (II)a functional CRE-luciferase assay, human calcitonin receptor; format: cell-based; conditions: Table 7; human calcitonin (CTa) receptor
T2 construct: expressed in transfected cells; host or cells: BHK570
T2 sequence (P30988 25-474): T1 sequence (P30988 25-474)

[4] = bistrispropane buffer, pH 6, pH 6.0, read-out: Solubility pH 6.0
[5] = bistrispropane buffer, pH 6.5, pH 6.5, read-out: Solubility pH 6.5
[6] = bistrispropane buffer, pH 7, pH 7.0, 18 hours at room temperature, Table 3, read-out: Solubility pH 7.0
[7] = bistrispropane buffer, pH 7, pH 7.0, read-out: Solubility pH 7.0
[8] = bistrispropane buffer, pH 7.5, pH 7.5, read-out: Solubility pH 7.5
[9] = bistrispropane buffer, pH 8, pH 8.0, read-out: Solubility pH 8.0
[10] = glycylglycine buffer, pH 3, pH 3.0, read-out: Solubility pH 3.0
[11] = glycylglycine buffer, pH 4, pH 4.0, 18 hours at room temperature, Table 2, read-out: Solubility pH 4.0
[12] = glycylglycine buffer, pH 4, pH 4.0, read-out: Solubility pH 4.0
[13] = glycylglycine buffer, pH 5, pH 5.0, read-out: Solubility pH 5.0

pEC50 [1] | solubility at 18 h [2, 4] [µM] | solubility at 18 h [2, 5] [µM] | solubility at 18 h [2, 6] [µM] | solubility at 18 h ([2]; bistrispropane buffer, pH 7, pH 7.0, Table 8, read-out: Solubility pH 7.0) [µM] | solubility at 18 h ([2]; bistrispropane buffer, pH 7, pH 7.0, Table 9, read-out: Solubility pH 7.0) [µM] | solubility at 18 h [2, 7] [µM] | solubility at 18 h ([2]; bistrispropane buffer, pH 7.5, pH 7.5, Table 9, read-out: Solubility pH 7.5) [µM] | solubility at 18 h [2, 8] [µM] | solubility at 18 h [2, 9] [µM] | solubility at 18 h [2, 10] [µM] | solubility at 18 h [2, 11] [µM] | solubility at 18 h [2, 12] [µM] | solubility at 18 h [2, 13] [µM] | pEC50 [3] | SMILES | Food intake reduction 0-24 h 3 nmol/kg (%) (food intake) | Food intake reduction 24-48 h 3 nmol/kg (%) (food intake)
10.29 | > 200 | > 200 | > 200 | > 200 | > 200 | > 200 | > 200 | > 200 | > 200 | > 200 | > 200 | > 200 | > 200 | 10.34 | CC[C@H](C)[C@H](NC(=O)[C@@H]1CCCN1C(=O)CNC(=O)[C@H](Cc1ccccc1)NC(=O)[C@H](CC(N)=O)NC(=O)[C@H](CC(N)=O)NC(=O)[C@H](CO)NC(=O)[C@H](CO)NC(=O)[C@H](Cc1c[nH]cn1)NC(=O)[C@H](Cc1c[nH]cn1)NC(=O)[C@H](CC(C)C)NC(=O)[C@H](Cc1ccccc1)NC(=O)[C@H](CCC(=O)O)NC(=O)[C@H](C)NC(=O)[C@H](CC(C)C)NC(=O)[C@H](CCCNC(=N)N)NC(=O)[C@H](CCC(N)=O)NC(=O)[C@@H](NC(=O)[C@H](C)NC(=O)[C@@H]1CSSC[C@H](NC(=O)[C@H](CCCNC(=N)N)NC(=O)CNC(=O)CC[C@H](NC(=O)CCCCCCCCCCCCCCCCCCC(=O)O)C(=O)O)C(=O)N[C@@H](CC(N)=O)C(=O)N[C@@H]([C@@H](C)O)C(=O)N[C@@H](C)C(=O)N[C@@H]([C@@H](C)O)C(=O)N1)[C@@H](C)O)C(=O)N[C@@H](CC(C)C)C(=O)N1CCC[C@H]1C(=O)N1CCC[C@H]1C(=O)N[C@H](C(=O)N[C@@H](CC(N)=O)C(=O)N[C@H](C(=O)NCC(=O)N[C@@H](CO)C(=O)N[C@@H](CC(N)=O)C(=O)N[C@H](C(=O)N1CCC[C@H]1C(N)=O)[C@@H](C)O)C(C)C)[C@@H](C)O [Example 101, N-alpha-[(S)-4-Carboxy-4-(19-carboxynonadecanoylamino)butyryl]-Gly-[Arg1,Glu14,His17,Pro37]-pramlintide] ({C20 diacid-γGlu}-GRCNTATCATQRLAEFLHHSSNNFGPILPPTNVGSNTP-NH2; disulfide 3-8 (inferred)) | 70 | 90
9.89 | > 200 | > 200 | > 200 | – | – | > 200 | – | > 200 | > 200 | > 200 | > 200 | > 200 | > 200 | 9.67 | CC[C@H](C)[C@H](NC(=O)[C@@H]1CCCN1C(=O)CNC(=O)[C@H](Cc1ccccc1)NC(=O)[C@H](CC(N)=O)NC(=O)[C@H](CC(N)=O)NC(=O)[C@H](CO)NC(=O)[C@H](CO)NC(=O)[C@H](Cc1c[nH]cn1)NC(=O)[C@H](Cc1c[nH]cn1)NC(=O)[C@H](CC(C)C)NC(=O)[C@H](Cc1ccccc1)NC(=O)[C@H](CCC(=O)O)NC(=O)[C@H](C)NC(=O)[C@H](CC(C)C)NC(=O)[C@H](CCCNC(=N)N)NC(=O)[C@H](CCC(N)=O)NC(=O)[C@@H](NC(=O)[C@H](C)NC(=O)[C@@H]1CSSC[C@H](NC(=O)[C@H](CCCCN)NC(=O)[C@H](CCC(=O)O)NC(=O)CC[C@H](NC(=O)CCCCCCCCCCCCCCCCCCC(=O)O)C(=O)O)C(=O)N[C@@H](CC(N)=O)C(=O)N[C@@H]([C@@H](C)O)C(=O)N[C@@H](C)C(=O)N[C@@H]([C@@H](C)O)C(=O)N1)[C@@H](C)O)C(=O)N[C@@H](CC(C)C)C(=O)N1CCC[C@H]1C(=O)N1CCC[C@H]1C(=O)N[C@H](C(=O)N[C@@H](CC(N)=O)C(=O)N[C@H](C(=O)NCC(=O)N[C@@H](CO)C(=O)N[C@@H](CC(N)=O)C(=O)N[C@H](C(=O)N[C@@H](Cc1ccc(O)cc1)C(N)=O)[C@@H](C)O)C(C)C)[C@@H](C)O [Example 26, N-alpha-[(S)-4-Carboxy-4-(19-carboxynonadecanoylamino)butyryl]-Glu-[Glu14,His17]-pramlintide] ({C20 diacid-γGlu}-EKCNTATCATQRLAEFLHHSSNNFGPILPPTNVGSNTY-NH2; disulfide 3-8 (inferred); C-terminus assumed) | 46 | 39
10.00 | 161 (≈ 720 µg/mL) | 132 (≈ 591 µg/mL) | – | – | – | 73 (≈ 327 µg/mL) | – | 62 (≈ 277 µg/mL) | 21 (≈ 94 µg/mL) | > 200 | > 200 | > 200 | 183 (≈ 819 µg/mL) | 9.34 | CC[C@H](C)[C@H](NC(=O)[C@@H]1CCCN1C(=O)CNC(=O)[C@H](Cc1ccccc1)NC(=O)[C@H](CC(N)=O)NC(=O)[C@H](CC(N)=O)NC(=O)[C@H](CO)NC(=O)[C@H](CO)NC(=O)[C@H](Cc1c[nH]cn1)NC(=O)[C@H](CCCNC(=N)N)NC(=O)[C@H](CC(C)C)NC(=O)[C@H](Cc1ccccc1)NC(=O)[C@H](CCC(=O)O)NC(=O)[C@H](C)NC(=O)[C@H](CC(C)C)NC(=O)[C@H](CCCNC(=N)N)NC(=O)[C@H](CCC(N)=O)NC(=O)[C@@H](NC(=O)[C@H](C)NC(=O)[C@@H]1CSSC[C@H](NC(=O)[C@H](CCCCN)NC(=O)CC[C@H](NC(=O)CCCCCCCCCCCCCCCCCCC(=O)O)C(=O)O)C(=O)N[C@@H](CC(N)=O)C(=O)N[C@@H]([C@@H](C)O)C(=O)N[C@@H](C)C(=O)N[C@@H]([C@@H](C)O)C(=O)N1)[C@@H](C)O)C(=O)N[C@@H](CC(C)C)C(=O)N1CCC[C@H]1C(=O)N1CCC[C@H]1C(=O)N[C@H](C(=O)N[C@@H](CC(N)=O)C(=O)N[C@H](C(=O)NCC(=O)N[C@@H](CO)C(=O)N[C@@H](CC(N)=O)C(=O)N[C@H](C(=O)N[C@@H](Cc1ccc(O)cc1)C(N)=O)[C@@H](C)O)C(C)C)[C@@H](C)O [Example 50, N-alpha-[(S)-4-Carboxy-4-(19-carboxynonadecanoylamino)butyryl]-[Glu14,Arg17]-pramlintide] ({C20 diacid-γGlu}-KCNTATCATQRLAEFLRHSSNNFGPILPPTNVGSNTY-NH2; disulfide 2-7 (inferred)) | 30 | 8

Source: patent publication US8722849B2, “Polypeptides” (Novo Nordisk A/S, priority 2011, dated 2014)
